We go through 15 compounds from patent US6974801B2, “Inhibitors and methods of use thereof” (The Trustees of Dartmounth College, priority 2002, dated 2005).

Where two headings read alike, the source gives them in different places.

Experiment [1] relates to NO production induced by INF-γ in mouse macrophages. Conditions: previously reported (Honda et al.); read-out: IC50 (level); cited from earlier work.
Experiment [2] has as its target T1, peroxisome proliferator-activated receptor γ (PPARγ) (Homo sapiens, UniProt P37231).
T1 sequence (P37231 1-505): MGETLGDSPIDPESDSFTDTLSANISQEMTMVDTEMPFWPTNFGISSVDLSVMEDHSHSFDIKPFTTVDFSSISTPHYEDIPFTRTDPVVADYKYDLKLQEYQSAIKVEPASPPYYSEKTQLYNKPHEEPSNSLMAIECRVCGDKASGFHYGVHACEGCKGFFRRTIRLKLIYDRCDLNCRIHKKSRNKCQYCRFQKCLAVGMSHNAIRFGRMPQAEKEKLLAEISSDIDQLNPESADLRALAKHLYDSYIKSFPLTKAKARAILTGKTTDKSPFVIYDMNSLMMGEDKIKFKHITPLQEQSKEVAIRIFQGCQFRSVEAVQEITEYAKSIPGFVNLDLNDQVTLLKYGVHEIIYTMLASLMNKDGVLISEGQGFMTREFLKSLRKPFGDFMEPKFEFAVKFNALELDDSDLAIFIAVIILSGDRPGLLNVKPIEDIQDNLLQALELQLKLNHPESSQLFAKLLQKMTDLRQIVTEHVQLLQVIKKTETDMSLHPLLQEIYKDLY
To be noted: Wang et al., 2000; cited from earlier work.

The test system of experiment [3] is NO production induced by INF-γ in mouse macrophages. Kind of experiment: Inhibition of NO production induced by IFN-γ in mouse macrophages (Griess reaction). Type of experiment: cell-based. How it is done: The procedure for determining IC50 on NO production induced by INF-γ in mouse macrophages is as follows. Macrophages were harvested from female mice injected intraperitoneally four days previously with 4% thioglycollate. These cells were seeded in 96-well tissue culture plates and incubated with 4 ng/mL INF-γ in the presence or absence of inhibitory test compounds. After 48 hours NO production, measured as […] by the Griess reaction, was determined. This method is described fully by Ding et al. (1990) and Bogdan and Ding, (1992).

For experiment [4], the system named is human tumor cell lines, mouse 3T3-L1 fibroblasts, mouse macrophages. To be noted: cell culture; previously reported (Suh et al., 1999); cited from earlier work.
[5] abbreviates: Mus musculus, Macrophage, 48 h, Table 1; NO production induced by IFN-γ; tested 0.01 pM-1 μM (10-fold dilutions); average of several separate experiments.
The mark [6] stands for this setting: Mus musculus, Macrophage; Table 1; NO production induced by IFN-γ, 48 h; tested 0.01 pM-1 μM (10-fold dilutions); average of several separate experiments.
[7] abbreviates: SAR on substituents at C-17, Tables 1-3.
The mark [8] stands for this setting: Mus musculus, Macrophage; Table 2; NO production induced by IFN-γ, 48 h; tested 0.01 pM-1 μM (10-fold dilutions); average of several separate experiments.

Consider `COC(=O)[C@]12CCC(C)(C)C[C@H]1[C@H]1C(=O)C=C3[C@@]4(C)C=C(C#N)C(=O)C(C)(C)[C@@H]4CC[C@@]3(C)[C@]1(C)CC2` [CDDO methyl ester], for which, in experiment [1], the IC50 is roughly 0.1 nM.

For `CC1(C)CC[C@]2(C(=O)O)CC[C@]3(C)[C@H](C(=O)C=C4[C@@]5(C)C=C(C#N)C(=O)C(C)(C)[C@@H]5CC[C@]43C)[C@@H]2C1` [CDDO, 2-cyano-3,12-dioxooleana-1,9(11)-dien-28-oic acid], the “ligand for PPARγ” value in experiment [2] was “ligand”. The IC50 in experiment [1] was roughly 0.1 nM; in experiment [3] (setting [5]), 0.44 nM; in experiment [3] (Mus musculus, Macrophage, 48 h, Table 3; NO production induced by IFN-γ; tested 0.01 pM-1 μM (10-fold dilutions); average of several separate experiments), 0.7 nM. In addition, in experiment [4], the “concentrations at which potencies were found” value is listed as 10^−6 to 10^−9 M. In the case of `CC1(C)CC[C@]2(C#N)CC[C@]3(C)[C@H](C(=O)C=C4[C@@]5(C)C=C(C#N)C(=O)C(C)(C)[C@@H]5CC[C@]43C)[C@@H]2C1` [Compound 1, 2-cyano-3,12-dioxooleana-1,9(11)-dien-28-onitrile], the IC50 in experiment [3] (setting [6]) came to 0.0035 nM. Besides, in experiment [3] (setting [7]), the “potency compared with CDDO (SAR statement)” value (shortened to “potency compared with CDDO”) is “much more potent”. In experiment [3] (setting [6]), `CC(=O)OC[C@H]1OC(OC(=O)[C@]23CCC(C)(C)CC2C2C(=O)C=C4[C@@]5(C)C=C(C#N)C(=O)C(C)(C)[C@@H]5CC[C@@]4(C)[C@]2(C)CC3)[C@H](OC(C)=O)C(OC(C)=O)[C@@H]1OC(C)=O` (stereo partly shown) [Compound 2] had an IC50 of 0.07 nM. In experiment [3] (setting [6]), `CC1(C)CC[C@]2(C(N)=O)CC[C@]3(C)[C@H](C(=O)C=C4[C@@]5(C)C=C(C#N)C(=O)C(C)(C)[C@@H]5CC[C@]43C)[C@@H]2C1` [Compound 3] came in with an IC50 of 0.098 nM. The “potency compared with CDDO” value in experiment [3] (setting [7]) is reported as “greater potency than CDDO”.

With `Cc1cn(C(=O)[C@]23CCC(C)(C)CC2C2C(=O)C=C4[C@@]5(C)C=C(C#N)C(=O)C(C)(C)[C@@H]5CC[C@@]4(C)[C@]2(C)CC3)cn1` (stereo partly shown) [Compound 10, 1-(2-cyano-3,12-dioxooleana-1,9(11)-dien-28-oyl)-4-methylimidazole], the “potency compared with CDDO” value in experiment [3] (setting [7]) is on record as “greatest potency”.

In the case of `CCc1nccn1C(=O)[C@]12CCC(C)(C)CC1C1C(=O)C=C3[C@@]4(C)C=C(C#N)C(=O)C(C)(C)[C@@H]4CC[C@@]3(C)[C@]1(C)CC2` (stereo partly shown) [Compound 11], the IC50 in experiment [3] (setting [8]) is 0.1 nM.

The compound `CCCc1nccn1C(=O)[C@]12CCC(C)(C)CC1C1C(=O)C=C3[C@@]4(C)C=C(C#N)C(=O)C(C)(C)[C@@H]4CC[C@@]3(C)[C@]1(C)CC2` (stereo partly shown) [Compound 12] had a concentration for half-maximal inhibition (IC50) in experiment [3] (setting [8]) of 0.02 nM. Same read-out and setting: under `Cc1cn(C(=O)[C@]23CCC(C)(C)CC2C2C(=O)C=C4[C@@]5(C)C=C(C#N)C(=O)C(C)(C)[C@@H]5CC[C@@]4(C)[C@]2(C)CC3)c(C)n1` (stereo partly shown) [Compound 13] stands 0.1 nM; under `CC1(C)CC[C@]2(C(=O)n3ccnc3-c3ccccc3)CC[C@]3(C)C(C(=O)C=C4[C@@]5(C)C=C(C#N)C(=O)C(C)(C)[C@@H]5CC[C@]43C)C2C1` (stereo partly shown) [Compound 14], 0.05 nM. In experiment [3] (setting [8]), `CC1(C)CC[C@]2(C(=O)n3cnc(Br)c3)CC[C@]3(C)C(C(=O)C=C4[C@@]5(C)C=C(C#N)C(=O)C(C)(C)[C@@H]5CC[C@]43C)C2C1` (stereo partly shown) [Compound 15] registered an IC50 of 0.03 nM.

`CC(=O)OC[C@H]1O[C@@H](OC(=O)[C@]23CCC(C)(C)C[C@H]2[C@H]2C(=O)C=C4[C@@]5(C)C=C(C#N)C(=O)C(C)(C)[C@@H]5CC[C@@]4(C)[C@]2(C)CC3)[C@H](OC(C)=O)C(OC(C)=O)[C@H]1OC(C)=O` (stereo partly shown) [Compound 18] displayed an IC50 in experiment [3] (Mus musculus, Macrophage; Table 3; NO production induced by IFN-γ, 48 h; tested 0.01 pM-1 μM (10-fold dilutions); average of several separate experiments) of 0.05 nM. In experiment [3] (setting [6]), `C[C@@H]1C[C@H]2[C@@H]3CCC4=CC(=O)C=C[C@]4(C)[C@@]3(F)[C@@H](O)C[C@]2(C)[C@@]1(O)C(=O)CO` [Dexamethasone, reference compound] returned an IC50 of 0.1 nM.

For `CC1(C)CC[C@]2(C(=O)O)CC[C@]3(C)C(=CC[C@@H]4[C@@]5(C)CC[C@H](O)C(C)(C)[C@@H]5CC[C@]43C)[C@@H]2C1` [Oleanolic acid (OA), Oleanolic acid, reference compound], the IC50 in experiment [3] (setting [5]) was greater than 40000 nM; in experiment [3] (Mus musculus, Macrophage, 48 h, Table 2; NO production induced by IFN-γ; tested 0.01 pM-1 μM (10-fold dilutions); average of several separate experiments), greater than 40000 nM. In the case of `COC(=O)C12CCC(C)(C)CC1C1C(=O)C=C3C4(C)C=C(C(=O)O)C(=O)C(C)(C)C4CCC3(C)C1(C)CC2` (stereo not shown) [methyl 2-carboxy-3,12-dioxooleana-1,9(11)-dien-28-oate], the IC50 in experiment [1] was roughly 0.1 nM.
